Experimental data: ChEMBL document CHEMBL1201862, “PubChem BioAssay data set” (2004)
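Five concentrations, 48 hours, 96-well plates. Here, GI50 denotes the concentration required for 50% inhibition of growth.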 Active and inactive are the calls of the source. Cut-off read from the data, not from the text of the source: active = GI50 up to about 1.1 µM and inactive = higher.

Experiments:
Assay in all cases: inhibition of tumour cell growth, NCI panel, 48 h
CAKI-1 = system: CAKI-1
COLO 205 = system: COLO 205
HCT-116 = system: HCT-116
HOP-62 = system: HOP-62
IGROV-1 = system: IGROV-1
KM12 = system: KM12
LOX IMVI = system: LOX IMVI
NCI-H23 = system: NCI-H23
OVCAR-3 = system: OVCAR-3
OVCAR-4 = system: OVCAR-4
OVCAR-5 = system: OVCAR-5
OVCAR-8 = system: OVCAR-8
SF-295 = system: SF-295
SK-MEL-5 = system: SK-MEL-5
SK-OV-3 = system: SK-OV-3
SN12C = system: SN12C
SNB-19 = system: SNB-19
TK-10 = system: TK-10
U-251 = system: U-251
UACC-62 = system: UACC-62

Measured: GI50

N#Cc1c(NC(=S)NC(=O)c2ccccc2)nc2c(c1-c1ccccc1)CCC2
inactive: CAKI-1 > 100 µM | COLO 205 > 100 µM | HCT-116 > 100 µM | HOP-62 > 100 µM | IGROV-1 > 100 µM | KM12 > 100 µM | LOX IMVI > 100 µM | NCI-H23 > 100 µM | OVCAR-3 > 100 µM | OVCAR-4 > 100 µM | OVCAR-5 > 100 µM | OVCAR-8 67 µM | SF-295 91.2 µM | SK-MEL-5 73.3 µM | SK-OV-3 > 100 µM | SN12C 78.2 µM | SNB-19 > 100 µM | TK-10 91 µM | U-251 > 100 µM | UACC-62 > 100 µM

O=c1c(C(c2ccc(Cl)cc2)c2c(O)c3ccccc3n(-c3ccccc3)c2=O)c(O)c2ccccc2n1-c1ccccc1
inactive: CAKI-1 28.2 µM | COLO 205 30.8 µM | HCT-116 24.8 µM | HOP-62 28 µM | IGROV-1 > 100 µM | KM12 68.4 µM | LOX IMVI 18.8 µM | NCI-H23 11.1 µM | OVCAR-3 29 µM | OVCAR-4 32.1 µM | OVCAR-5 > 100 µM | OVCAR-8 29.4 µM | SF-295 14.4 µM | SK-MEL-5 28.7 µM | SK-OV-3 61.8 µM | SN12C 19.1 µM | SNB-19 17.7 µM | TK-10 67.8 µM | U-251 16.9 µM | UACC-62 13.3 µM

O=C(NN=C1CCCCC1)NN=C1CCCCC1
inactive: CAKI-1 > 100 µM | COLO 205 > 100 µM | HCT-116 > 100 µM | HOP-62 > 100 µM | IGROV-1 > 100 µM | KM12 > 100 µM | LOX IMVI > 100 µM | NCI-H23 > 100 µM | OVCAR-3 > 100 µM | OVCAR-4 > 100 µM | OVCAR-5 > 100 µM | OVCAR-8 > 100 µM | SF-295 > 100 µM | SK-MEL-5 > 100 µM | SK-OV-3 > 100 µM | SN12C > 100 µM | SNB-19 > 100 µM | TK-10 > 100 µM | U-251 > 100 µM | UACC-62 > 100 µM
